pIC50: −log10 of the molar value. Read-outs that look alike come from different tables or passages of the source.
Experiments:
[1] = system: Alt1, Alt2, Ast1, Ast2 mRNA in AML-12 hepatocytes; experiment: Transaminase gene mRNA (qPCR) in AML-12; assay type: cell-based, mouse; settings: 250 nM or 500 nM, 18 h
Description: One hypothesis for this effect is that AIMs directly or indirectly increase transaminase gene expression in the absence of cellular toxicity. […] AML-12 cells were plated in 6-well culture dishes at 3×10^5 cells per well using 2 mL of media per well. […] Each well received 0.1% DMSO. Three independent replicate experiments were performed. Following treatment, media was removed and cells were harvested using RLT buffer (Qiagen). Lysates were homogenized using QIAShredder columns (Qiagen, Catalog #79654) and RNA was isolated using RNeasy Mini kits (Qiagen, Catalog #74104). For reverse transcription, RNA (1 μg) was combined with Oligo(dT)12-18 primer and H2O in a final volume of 23.25 μL. The mixture was heated to 70° C. for 10 min and then placed on ice. A master mix containing 8 μL 5×1st strand buffer, 2 μL 1 mg/ml BSA, 2 μL 20 mM DTT, 4 μL 5 mM dNTP mix, 0.25 μL RNaseOUTTM and 0.5 μL […]® II reverse transcriptase was added to the RNA mixture and incubated at 42° C. for 1 h. The reaction was inactivated by heating to 70° C. for 10 min. The reaction mixture was diluted 1:3 with H2O prior to use in qPCR. 2.5 μL of the diluted reverse transcription reaction was combined with one set of PCR primers (0.36 μM final concentration), 2× iQTM SYBR® Green Supermix (Bio-Rad, Catalog #170-8885) and H2O to a final volume of 20 pt. Sequences for PCR primers are as follows: […] All primers had previously been validated for specificity and amplification efficiency. cDNA was amplified using the following cycle conditions: (95° C. for 3 min, 44 cycles of 95° C. for 30 sec, 60° C. for 15 sec, 72° C. for 15 sec, followed by a melt curve of 55° C. to 95° C. in increments of 0.5° C.). The relative abundance of each target gene was determined using the comparative CT method (ΔΔCT). PCR reactions were run in triplicate wells for each sample.

[2] = molecular target: CYP1A2 (Homo sapiens, UniProt P05177); experiment: in vitro; assay type: in vitro ADME; settings: microsomes
CYP1A2, sequence (P05177 whole entry): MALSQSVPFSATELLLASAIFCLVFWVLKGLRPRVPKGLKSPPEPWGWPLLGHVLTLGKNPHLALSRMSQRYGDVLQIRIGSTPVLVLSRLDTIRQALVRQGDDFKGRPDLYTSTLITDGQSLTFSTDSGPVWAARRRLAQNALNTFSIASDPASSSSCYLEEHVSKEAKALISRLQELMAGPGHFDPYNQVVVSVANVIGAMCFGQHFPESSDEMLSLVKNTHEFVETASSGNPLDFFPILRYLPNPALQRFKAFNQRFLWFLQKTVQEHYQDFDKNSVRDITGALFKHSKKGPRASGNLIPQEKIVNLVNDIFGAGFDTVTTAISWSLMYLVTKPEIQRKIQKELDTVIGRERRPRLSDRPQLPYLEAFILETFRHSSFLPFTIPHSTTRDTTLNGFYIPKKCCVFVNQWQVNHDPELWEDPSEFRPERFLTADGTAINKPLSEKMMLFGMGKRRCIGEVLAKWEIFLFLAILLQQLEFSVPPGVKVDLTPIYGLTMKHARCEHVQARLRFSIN
From the text: (§1) In addition, there was little or no evidence of metabolism-dependent inhibition of any of the enzymes tested.

[3] = system: LPS-induced NO (plasma NOx, Griess Reaction); experiment: Suppression of NO in vivo after LPS in CD-1 mice; set-up: species or system mouse; settings: LPS 5 mg/kg 24 h later
Description: FIG. 51—Dose-dependent suppression of NO in vivo by 63415. CD-1 mice (n=6) were dosed with DMSO or […] by oral gavage. LPS (5 mg/kg) was administered 24 h later. Twenty-four hours after LPS administration, whole blood was collected for NO assay. NO inhibition was determined by Griess Reaction from reduced, de-proteinated plasma.

[4] = system: bleomycin-induced pulmonary fibrosis
[5] = molecular target: CYP2C9 (Homo sapiens, UniProt P11712); experiment: CYP450 inhibition in pooled human liver microsomes, CYP2C9; assay type: in vitro ADME; settings: highest concentration tested (3 μM)
CYP2C9, sequence (P11712 whole entry): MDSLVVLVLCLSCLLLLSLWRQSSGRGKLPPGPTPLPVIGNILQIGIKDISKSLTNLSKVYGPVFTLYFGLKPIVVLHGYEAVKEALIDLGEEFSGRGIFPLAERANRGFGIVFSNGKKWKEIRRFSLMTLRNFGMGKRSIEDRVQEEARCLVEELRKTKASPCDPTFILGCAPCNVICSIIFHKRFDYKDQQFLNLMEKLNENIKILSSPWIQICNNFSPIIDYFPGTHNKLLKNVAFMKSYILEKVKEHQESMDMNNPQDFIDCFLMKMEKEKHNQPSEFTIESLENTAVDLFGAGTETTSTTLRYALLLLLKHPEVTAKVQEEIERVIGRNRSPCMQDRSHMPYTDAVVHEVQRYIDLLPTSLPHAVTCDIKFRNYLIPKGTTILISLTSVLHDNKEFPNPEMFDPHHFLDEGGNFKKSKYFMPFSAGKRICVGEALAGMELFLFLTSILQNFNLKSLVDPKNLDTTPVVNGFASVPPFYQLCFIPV
From the text: as §1

[6] = system: NF-κB in NIH3T3/NF-κB-luc cell line; experiment: NF-κB luciferase reporter in NIH3T3/NF-κB-luc; assay type: cell-based; settings: Mus musculus
From the text: (b) TNF-α-induced activation of an NF-κB luciferase reporter in the mouse NIH3T3 cell line.
NF-κB is a transcription factor that plays a central role in the regulation of many immune and inflammatory responses. […] The NIH3T3/NF-κB-luc cell line maintains a chromosomal integration of a Firefly luciferase reporter construct regulated by eight copies of the NF-κB response element. The effects of these compounds can be quantified by measuring the value of the NF-κB IC50.

[7] = system: C4-2B-Luc and DU145-Luc human prostate cancer tumors; experiment: Pilot in vivo prostate tumor model with ionizing radiation (luciferase imaging); set-up: species or system mouse; settings: 17.5 mg/kg i.p. plus 18 Gy; n=1
Description: The colors indicated by the arrows are indicative of intensity with the intensities being represented by red, yellow, green, and blue in order from highest to lowest intensity.
After the successful results of the in vitro assay, a pilot in vivo assay was carried out using LNCaP/C4-2B and DU145 human prostate cancer engineered to express firefly luciferase (hereafter referred to as C4-2B-Luc and DU145-Luc, respectively). Of note, both of these cell lines grow in an androgen-independent fashion. Cells were cultured in RPMI 1640 supplemented with 10% FBS. Cells were harvested using TrypLE Express (Invitrogen) and washed in PBS and counted. Cells were reconstituted in PBS to arrive at a final concentration of 3×10^6 cells per 30 μL (unless otherwise stated) and aliquoted in separate tubes. Growth factor-reduced Matrigel (BD Bioscience) was thawed overnight at +4° C. and transferred into the tubes in 30 μL aliquots. The cell/Matrigel solutions were transferred to the vivarium and mixed right before injection at a 1:1 ratio. Each mouse (n=1 per group for a total of three animals) received a single subcutaneous injection of the tumor cells. Tumors were pre-established for 4 weeks. […] Tumor progression was monitored weekly via live imaging. […] For standardization, minimal exposure time necessary to image control tumor was determined and all animals were imaged under these conditions. […]

[8] = molecular target: CYP2C19 (Homo sapiens, UniProt P33261); experiment: CYP450 inhibition in pooled human liver microsomes, CYP2C19; assay type: in vitro ADME; settings: highest concentration tested (3 μM)
CYP2C19, sequence (P33261 whole entry): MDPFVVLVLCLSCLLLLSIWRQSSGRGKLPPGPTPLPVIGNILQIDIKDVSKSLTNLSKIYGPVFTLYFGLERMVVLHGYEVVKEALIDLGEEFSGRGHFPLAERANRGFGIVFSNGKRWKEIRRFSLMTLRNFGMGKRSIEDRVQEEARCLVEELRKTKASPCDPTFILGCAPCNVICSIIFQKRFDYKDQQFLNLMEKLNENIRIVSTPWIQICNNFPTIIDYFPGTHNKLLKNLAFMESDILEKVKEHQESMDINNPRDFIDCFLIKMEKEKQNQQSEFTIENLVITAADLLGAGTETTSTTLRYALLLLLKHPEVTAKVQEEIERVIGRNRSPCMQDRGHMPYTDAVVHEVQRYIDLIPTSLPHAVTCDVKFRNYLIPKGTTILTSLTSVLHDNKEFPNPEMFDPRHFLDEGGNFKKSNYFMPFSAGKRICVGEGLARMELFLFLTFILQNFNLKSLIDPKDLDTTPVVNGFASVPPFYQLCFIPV
From the text: as §1

[9] = system: radiation-induced oral mucositis; experiment: Radiation-induced oral mucositis in hamsters
[10] = system: DU-145 prostate cancer cell line; experiment: Cytotoxicity in combination with docetaxel in DU-145; assay type: cell-based; settings: RTA 408 0.125 to 0.75 μM
From the text: This evidence supports the concept that RTA 408 could act synergistically with cancer therapeutic agents and may be used in some embodiments to provide greater efficacy in treating cancer patients.

[11] = 3 and 10 mg/kg daily for 28 days

## CC1(C)CC[C@]2(NC(=O)C(C)(F)F)CC[C@]3(C)[C@H](C(=O)C=C4[C@@]5(C)C=C(C#N)C(=O)C(C)(C)[C@@H]5CC[C@]43C)[C@@H]2C1 [RTA 408, N-((4aS,6aR,6bS,8aR,12aS,14aR,14bS)-11-cyano-2,2,6a,6b,9,9,12a-heptamethyl-10,14-dioxo-1,2,3,4,4a,5,6,6a,6b,7,8,8a,9,10,12a,14,14a,14b-octadecahydropicen-4a-yl)-2,2-difluoropropanamide]
[1]
  mRNA levels of alanine transaminase 1 (Alt1 or Gpt1): increased mRNA levels of alanine transaminase 1
  mRNA levels of alanine transaminase 2 (Alt2 or Gpt2): no effect
  mRNA levels of aspartate transaminase 1 (Ast1 or Got1): increased mRNA levels
  mRNA levels of aspartate transaminase 2 (Ast2 or Got2): reduced mRNA levels
[2]
  inhibition at 3 µM: < 50%
[3]; 13 mg/kg oral gavage
  NOx Levels (% vs LPS Controls): 30%
[3]; 25 mg/kg oral gavage
  NOx Levels (% vs LPS Controls): 18%
[3]; 50 mg/kg oral gavage
  NOx Levels (% vs LPS Controls): 16%
[4]; 3 mg/kg
  Animals with Mild trichrome staining intensity: 0
  Animals with Minimal trichrome staining intensity: 0
  Animals with Moderate trichrome staining intensity: 7
[4]; 10 mg/kg
  Animals with Mild trichrome staining intensity: 4
  Animals with Minimal trichrome staining intensity: 3
  Animals with Moderate trichrome staining intensity: 1
[4]; 30 mg/kg daily oral gavage
  Tolerability of 30-mg/kg dose (stopped on day 14): excessive dehydration and diarrhea
[4]; [11]
  PMN cell infiltration into the lungs: significantly suppressed polymorphonuclear (PMN) cell infiltration into the lungs
  Reduction in hydroxyproline deposition: 10%-20%
[4]; rats exposed to bleomycin
  Lung Nrf2 target enzyme activity: significantly and dose-dependently increased NQO1, Txnrd, Gsr, and Gst enzyme activity
[5]
  inhibition at 3 µM: < 50%
[6]; not viability normalized, read-out: NIH3T3/NF-κB IC50
  pIC50: 5.92
[6]; viability normalized, read-out: NIH3T3/NF-κB IC50, normalized for viability
  pIC50: 5.85
[7]
  Tumor image (luciferase), RTA 408 plus ionizing radiation: no visible tumor on Day 21
[8]
  inhibition at 3 µM: < 50%
[9]; 30 mg/kg and 100 mg/kg BID×20
  Reduction in ulceration: ≤ 36%
[9]; 100 mg/kg
  Euthanasia due to weight loss in excess of 20%: two out of eight hamsters in the 100 mg/kg dose group were euthanized on Day 2
[9]; 30 and 100 mg/kg twice daily
  Duration of ulcerative mucositis: significant reduction in the duration of ulcerative mucositis
[10]
  Cytotoxicity of docetaxel in combination: amplified the cytotoxicity of the chemotherapeutic agent in a statistically significant fashion

From patent US9701709B2 (REATA PHARMACEUTICALS, INC., priority 2012, dated 2017)
